{
  "source": "patent US10570425B2",
  "about": "“Engineered cyanobacterium and its application for producing acetate” (National Tsing Hua University, priority 2017, dated 2020)",
  "origin": "cited, not measured here",
  "key": {"[1]": {"test_system": "phosphate acetyltransferases (Pta and EutD)", "details": "Acetyl-CoA forming reaction; for kcat/KmAc-P: substrate Ac-P; for kcat/KmCoA: substrate CoA"}, "[2]": {"biological_target": "3-hydroxypropionaldehyde dehydrogenase (AldH) (Escherichia coli, UniProt P23883)", "sequence (P23883 whole entry)": "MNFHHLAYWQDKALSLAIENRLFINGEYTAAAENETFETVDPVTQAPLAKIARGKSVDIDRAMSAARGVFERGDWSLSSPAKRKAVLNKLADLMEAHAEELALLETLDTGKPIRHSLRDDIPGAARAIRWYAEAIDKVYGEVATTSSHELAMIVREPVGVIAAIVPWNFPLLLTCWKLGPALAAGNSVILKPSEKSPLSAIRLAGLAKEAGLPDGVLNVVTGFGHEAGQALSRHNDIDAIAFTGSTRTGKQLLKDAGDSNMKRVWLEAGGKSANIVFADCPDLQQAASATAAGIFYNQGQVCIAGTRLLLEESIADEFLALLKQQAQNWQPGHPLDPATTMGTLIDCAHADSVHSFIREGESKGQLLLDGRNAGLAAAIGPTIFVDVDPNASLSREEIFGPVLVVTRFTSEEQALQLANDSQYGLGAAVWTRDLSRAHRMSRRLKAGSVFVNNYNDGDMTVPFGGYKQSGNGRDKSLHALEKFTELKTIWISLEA", "details": "substrate of AldH"}, "[3]": {"test_system": "phenylacetaldehyde dehydrogenase (PadA)", "details": "substrate of padA, Table 4"}, "padA": {"test_system": "padA", "details": "substrate of padA as titled, Table 5"}, "[4]": {"biological_target": "acetaldehyde dehydrogenase B (AldB) (Escherichia coli, UniProt P37685)", "sequence (P37685 whole entry)": "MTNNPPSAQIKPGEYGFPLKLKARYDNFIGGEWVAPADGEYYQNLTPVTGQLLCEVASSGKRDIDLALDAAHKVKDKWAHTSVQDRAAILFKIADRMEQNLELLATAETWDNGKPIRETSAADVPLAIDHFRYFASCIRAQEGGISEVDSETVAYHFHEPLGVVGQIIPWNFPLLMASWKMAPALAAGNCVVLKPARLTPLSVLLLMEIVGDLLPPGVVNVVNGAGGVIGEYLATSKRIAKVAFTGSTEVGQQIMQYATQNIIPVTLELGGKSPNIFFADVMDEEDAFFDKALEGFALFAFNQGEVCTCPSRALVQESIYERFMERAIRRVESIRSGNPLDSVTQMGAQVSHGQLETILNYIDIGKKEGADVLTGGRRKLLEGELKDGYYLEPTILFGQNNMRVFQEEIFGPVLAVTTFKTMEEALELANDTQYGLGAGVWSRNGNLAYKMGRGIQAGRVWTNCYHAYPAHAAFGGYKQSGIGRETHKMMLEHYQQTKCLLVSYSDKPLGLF", "details": "substrate of aldB"}},
  "data": [
    {"molecule": "Ec-eutD: phosphate acetyltransferase EutD from Escherichia coli", "values": [
      {"measurement": "kcat/KmAc-P", "setting": "[1]", "result": 1.3, "unit": "sec^−1μM^−1"},
      {"measurement": "kcat/KmCoA", "setting": "[1]", "result": 12.6, "unit": "sec^−1μM^−1"}
    ]},
    {"molecule": "O=CCCO", "note": "[3-Hydroxypropionaldehyde]", "values": [
      {"measurement": "Km", "setting": "[2]", "result": 0.49, "unit": "mM"}
    ]},
    {"molecule": "O=Cc1ccccc1", "note": "[Benzaldehyde]", "values": [
      {"measurement": "Km", "setting": "[3]", "result": 8, "unit": "µM"},
      {"measurement": "Km", "setting": "padA", "result": 150, "unit": "µM"}
    ]},
    {"molecule": "O=CCCl", "note": "[Chloroacetaldehyde]", "values": [
      {"measurement": "Km", "setting": "[4]", "result": 3.6, "unit": "µM"}
    ]},
    {"molecule": "CC=O", "note": "[Acetaldehyde]", "values": [
      {"measurement": "Km", "setting": "[2]", "result": 1, "unit": "mM"},
      {"measurement": "Km", "setting": "[3]", "result": 2150, "unit": "µM"},
      {"measurement": "Km", "setting": "padA", "result": 15200, "unit": "µM"},
      {"measurement": "Km", "setting": "[4]", "result": 2.5, "unit": "µM"}
    ]},
    {"molecule": "CCC=O", "note": "[Propionaldehyde]", "values": [
      {"measurement": "Km", "setting": "[2]", "result": 1.21, "unit": "mM"},
      {"measurement": "Km", "setting": "[3]", "result": 11.6, "unit": "µM"},
      {"measurement": "Km", "setting": "padA", "result": 240, "unit": "µM"},
      {"measurement": "Km", "setting": "[4]", "result": 5.8, "unit": "µM"}
    ]},
    {"molecule": "Ec-pta: phosphate acetyltransferase Pta from Escherichia coli (protein, UniProt P0A9M8 2-714, looked up) Phosphate acetyltransferase: SRIIMLIPTGTSVGLTSVSLGVIRAMERKGVRLSVFKPIAQPRTGGDAPDQTTTIVRANSSTTTAAEPLKMSYVEGLLSSNQKDVLMEEIVANYHANTKDAEVVLVEGLVPTRKHQFAQSLNYEIAKTLNAEIVFVMSQGTDTPEQLKERIELTRNSFGGAKNTNITGVIVNKLNAPVDEQGRTRPDLSEIFDDSSKAKVNNVDPAKLQESSPLPVLGAVPWSFDLIATRAIDMARHLNATIINEGDINTRRVKSVTFCARSIPHMLEHFRAGSLLVTSADRPDVLVAACLAAMNGVEIGALLLTGGYEMDARISKLCERAFATGLPVFMVNTNTWQTSLSLQSFNLEVPVDDHERIEKVQEYVANYINADWIESLTATSERSRRLSPPAFRYQLTELARKAGKRIVLPEGDEPRTVKAAAICAERGIATCVLLGNPAEINRVAASQGVELGAGIEIVDPEVVRESYVGRLVELRKNKGMTETVAREQLEDNVVLGTLMLEQDEVDGLVSGAVHTTANTIRPPLQLIKTAPGSSLVSSVFFMLLPEQVYVYGDCAINPDPTAEQLAEIAIQSADSAAAFGIEPRVAMLSYSTGTSGAGSDVEKVREATRLAQEKRPDLMIDGPLQYDAAVMADVAKSKAPNSPVAGRATVFIFPDLNTGNTTYKAVQRSADLISIGPMLQGMRKPVNDLSRGALVDDIVYTIALTAIQSAQQQ", "values": [
      {"measurement": "kcat/KmAc-P", "setting": "[1]", "result": 0.25, "unit": "sec^−1μM^−1"},
      {"measurement": "kcat/KmCoA", "setting": "[1]", "result": 3.4, "unit": "sec^−1μM^−1"}
    ]}
  ]
}
